# Laboratory results published in PubChem BioAssay AID1845196 (Molecular Pharmacology Branch, DTP, NCI, 2023).
# pIC50: −log10 of the molar value.
# Test system: 292921-168-R tumor spheroid viability
# Assay: Anticancer human tumor 292921-168-R patient-derived pancreatic carcinoma cell line growth inhibition
# Details: spheroids with HUVEC and MSC; for pIC50: curve of first compound; for viability, T/C: stronger effect = lower value
# How it was run: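 Complex tumor spheroids combined malignant cells with endothelial cells and mesenchymal stem cells. DNA-damaging drugs and DNA repair inhibitors were tested alone and in combination, at half-log dilutions down from clinical Cmax (top 10 microM if Cmax unknown), 0.25% DMSO final.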
# [1] = second compound 30 pM, first compound 0.0316 µM
# [2] = second compound 30 pM, first compound 0.1 µM
# [3] = second compound 30 pM, first compound 0.316 µM
# [4] = second compound 30 pM, first compound 1 µM
# [5] = second compound 30 pM, first compound 3.16 µM
# [6] = second compound 30 pM, first compound 10 µM
# [7] = second compound 94.9 pM, first compound 0.0316 µM
# [8] = second compound 94.9 pM, first compound 0.1 µM
# [9] = second compound 94.9 pM, first compound 0.316 µM
# [10] = second compound 94.9 pM, first compound 1 µM
# [11] = second compound 94.9 pM, first compound 3.16 µM
# [12] = second compound 94.9 pM, first compound 10 µM
# [13] = second compound 0.0003 µM, first compound 0.0316 µM
# [14] = second compound 0.0003 µM, first compound 0.1 µM
# [15] = second compound 0.0003 µM, first compound 0.316 µM
# [16] = second compound 0.0003 µM, first compound 1 µM
# [17] = second compound 0.0003 µM, first compound 3.16 µM
# [18] = second compound 0.0003 µM, first compound 10 µM
# [19] = second compound 0.000949 µM, first compound 0.0316 µM
# [20] = second compound 0.000949 µM, first compound 0.1 µM
# [21] = second compound 0.000949 µM, first compound 0.316 µM
# [22] = second compound 0.000949 µM, first compound 1 µM
# [23] = second compound 0.000949 µM, first compound 3.16 µM
# [24] = second compound 0.000949 µM, first compound 10 µM
# [25] = second compound 0.003 µM, first compound 0.0316 µM
# [26] = second compound 0.003 µM, first compound 0.1 µM
# [27] = second compound 0.003 µM, first compound 0.316 µM
# [28] = second compound 0.003 µM, first compound 1 µM
# [29] = second compound 0.003 µM, first compound 3.16 µM
# [30] = second compound 0.003 µM, first compound 10 µM
# 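Note: spheroids exposed to compounds for 7 days.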
SMILES,pIC50 (second compound 30 pM),pIC50 (second compound 94.9 pM),pIC50 (second compound 0.0003 µM),pIC50 (second compound 0.000949 µM),pIC50 (second compound 0.003 µM),"viability, T/C [1] [%]","viability, T/C [2] [%]","viability, T/C [3] [%]","viability, T/C [4] [%]","viability, T/C [5] [%]","viability, T/C [6] [%]","viability, T/C [7] [%]","viability, T/C [8] [%]","viability, T/C [9] [%]","viability, T/C [10] [%]","viability, T/C [11] [%]","viability, T/C [12] [%]","viability, T/C [13] [%]","viability, T/C [14] [%]","viability, T/C [15] [%]",further results
COc1ccc([C@@H](O)c2cc(-c3ncnc4cc(N5CCOCC5)ccc34)c(F)cc2Cl)nn1 + COc1cc2c(cc1O)CCNC21CSC2c3c(OC(C)=O)c(C)c4c(c3C(COC1=O)N1C(O)C3Cc5cc(C)c(OC)c(O)c5C(C21)N3C)OCO4,5.84,6.06,> 7.50,> 7.50,> 7.50,100,107,95.6,58.6,31.1,19.5,105,99.2,78.7,45.4,27.4,19,40.7,43.3,26.3,"viability, T/C [16]: 13.7%; viability, T/C [17]: 9.98%; viability, T/C [18]: 7.7%; viability, T/C [19]: 2.51%; viability, T/C [20]: 2.48%; viability, T/C [21]: 0.8%; viability, T/C [22]: 0.09%; viability, T/C [23]: 0.1%; viability, T/C [24]: 0.26%; viability, T/C [25]: 0.14%; viability, T/C [26]: 0.23%; viability, T/C [27]: 0.49%; viability, T/C [28]: 1.37%; viability, T/C [29]: 1.46%; viability, T/C [30]: 1.42%"
Cc1cc(C)c(CNC(=O)c2cc(-c3ccc(CN4CCOCC4)cc3)cc3c2cnn3C2CCCC2)c(=O)[nH]1 + COc1cc2c(cc1O)CCNC21CSC2c3c(OC(C)=O)c(C)c4c(c3C(COC1=O)N1C(O)C3Cc5cc(C)c(OC)c(O)c5C(C21)N3C)OCO4,< 5.00,< 5.00,6.20,> 7.50,> 7.50,99.1,113,110,109,101,84.2,97.7,107,108,102,101,78,50,55.4,47.4,"viability, T/C [16]: 49%; viability, T/C [17]: 48%; viability, T/C [18]: 40.5%; viability, T/C [19]: 5.06%; viability, T/C [20]: 5.13%; viability, T/C [21]: 5.06%; viability, T/C [22]: 3.5%; viability, T/C [23]: 3.21%; viability, T/C [24]: 4.34%; viability, T/C [25]: 0.15%; viability, T/C [26]: 0.18%; viability, T/C [27]: 0.17%; viability, T/C [28]: 0.15%; viability, T/C [29]: 0.17%; viability, T/C [30]: 0.23%"
[2H]c1nc(C)nc([2H])c1-c1cc(NC[C@@H](C)c2cccc3c(C(=O)NC)ccnc23)ncn1 + COc1cc2c(cc1O)CCNC21CSC2c3c(OC(C)=O)c(C)c4c(c3C(COC1=O)N1C(O)C3Cc5cc(C)c(OC)c(O)c5C(C21)N3C)OCO4,< 5.00,< 5.00,> 7.50,> 7.50,> 7.50,108,99.4,99.7,117,105,103,99.2,102,104,106,101,99.8,37.5,58.4,52.1,"viability, T/C [16]: 48.2%; viability, T/C [17]: 46%; viability, T/C [18]: 41%; viability, T/C [19]: 4.08%; viability, T/C [20]: 3.23%; viability, T/C [21]: 4.22%; viability, T/C [22]: 2.93%; viability, T/C [23]: 3.26%; viability, T/C [24]: 2.21%; viability, T/C [25]: 0.18%; viability, T/C [26]: 0.19%; viability, T/C [27]: 0.19%; viability, T/C [28]: 0.18%; viability, T/C [29]: 0.19%; viability, T/C [30]: 0.34%"
